Test results: patent US5317009A, “Anti-HIV proteins GAP 31, DAP 30 and DAP 32 and therapeutic uses thereof” (New York University, priority 1991, dated 1994)
Entries after “also recorded” stand apart in the source; their conditions may differ.

Assays:
cells [1] = system: cells
cells [2] = settings: literature; cited from earlier work
HIV-1 [3] = assay: Viral-associated reverse transcriptase (HIV-RT) activity in H9 cell cultures; assay type: cell-based, HIV-1 (H9 cells)
Experimental: (§1) FIG. 3 is a graph showing the effects of GAP 31, DAP 30 and DAP 32 on HIV-1 replication, measured by viral core antigen p24 expression and HIV-RT activity. p24 production was determined by RIA and expressed in ng/ml. Viral-RT activity was determined by the incorporation of [^3 H]dTTP into TCA-precipitable products and expressed as cpm×10^3 /ml. These values in control culture (without added plant proteins) were 2219 ng/ml and 846×10^3 cpm/ml, respectively, as determined in triplicates in two independent experiments. Results are normalized to values obtained in control cultures.
(§2) The anti-HIV activities of GAP 31, DAP 30, and DAP 32 were determined by microtiter syncytia formation in infectious cell center assay (Nara, P. L. et al., Nature 332:469-70 (1988)), viral core protein p24 expression (Nara, P. L. et al., AIDS Res. Human Retroviruses 3:283-302 (1987)), and viral-associated RT activity (Hoffman, A. D. et al., Virology 147:326-35 (1985)). […]
(§3) Assays of viral core protein p24 expression and HIV-RT activity were carried out in H9 cell cultures. […] The amount of p24 was measured by RIA and expressed in terms of ng/ml. HIV-RT activity was determined by the incorporation of [^3 H] labeled thymidine with poly(rA).p(dT)12-18 as primer-template and expressed in terms of cpm/ml.

CF1 mice = settings: i.p.
HIV-1 [4] = assay: Viral core protein p24 expression in H9 cell cultures (HIV-1 replication); assay type: cell-based, HIV-1 (H9 cells)
Experimental: as §1, §2, §3

HIV-1 [5] = assay: Syncytia formation in infectious cell center assay (HIV-1 infection); assay type: cell-based, HIV-1 (CEM-ss indicator cells)
Excerpt: FIG. 2 is a graph showing the effects of GAP 31, DAP 30 and DAP 32 on HIV-1 infection by inhibition of syncytia formation in an infectious cell center assay (ICC). Results represent average values of triplicates from two independent experiments. Triplicate wells of indicator cells containing the test compounds at each concentration without virus were also included for the determination of the cytotoxic and cytostatic activities of these anti-HIV proteins. Infectious cell centers (%ICC) are expressed in terms of Vn/Vo where Vn and Vo are average numbers of syncytia in the drug-treated and untreated samples respectively.
as §2
Freshly prepared indicator cells in culture medium at 5×10^4 in 100 μl were treated with 100 μl of SCRIP at various concentrations, for 90 min. […] Focal syncytium formation representing single infectious virion units was scored at day 5 by examination under an inverted microscope. […]

[6] = system: ribosome (rabbit reticulocyte lysate system); assay: Ribosome-inactivating activity: cell-free translation of globin mRNA in rabbit reticulocyte lysate; assay type: biochemical
Experimental: FIG. 5 is a graph showing the ribosome-inactivating activity of GAP 31, […] and DAP 32, measured as in vitro translation of globin mRNA in a rabbit reticulocyte system. Inhibition of protein synthesis was determined by measuring incorporation of [^3 H]leucine into TCA-insoluble material as a function of drug concentration. Results are from two independent experiments each run in duplicate. Average control values for leucine incorporation without added anti-HIV protein is 65,000 cpm/μl. Results are shown as % of control plotted against concentration of the added anti-HIV protein.
Ribosome-inactivating activity was measured by cell-free protein biosynthesis in a rabbit reticulocyte lysate system. The reaction was carried out in a total volume of 25 μl containing 2 mM magnesium acetate, 80 mM potassium acetate, 2.5 mM spermidine, 34.5 mg/ml creatine phosphate, 26 mg/ml GTP, 250 mM HEPES buffer, 1 μCi of [3H] leucine and 1 μg of globin mRNA. Incubation was conducted at 37° C. for 30 min. The translation products were resolved by TLC in a solvent system of methanol/water/TCA/glacial acetic acid (30/50/10/10, V/V/W/V). The incorporation of [^3 H] labeled leucine into TCA precipitable product was measured by scintillation counting.

H9 cells = assay: Cytotoxicity to uninfected H9 cells (cellular DNA and protein synthesis); assay type: cell-based
Experimental: FIG. 4 is a graph showing the cytotoxic activity of GAP 31, DAP 30 and DAP 32, measured as cellular incorporation of [^3 H] thymidine or leucine into TCA-insoluble material in pulse labeling experiments. H9 cells were seeded at 2×10^4 cells/well and cultures pulsed with 1 μCi (1 Ci=37 GBq) of label 8 hr prior to harvesting at day 4. DNA or protein synthesis were measured by scintillation counting of the incorporation of labelled precursors. Results are normalized to values obtained for controls cultures without added anti-HIV proteins. Control values for thymidine uptake was 201,000 cpm and for leucine was 61,000 cpm. Results are the average triplicate values in two independent experiments.
The cytotoxicities of the SCRIPs were measured by their effects on cellular DNA and protein syntheses in uninfected H9 cells. Target cells were grown in the absence and presence of various amounts of SCRIPs. The cultures were pulse labeled with 1 μCi of [^3 H] labeled thymidine or leucine for 8 hours prior to harvesting on day 4. Cellular incorporation of these labeled precursors into trichloroacetic acid (TCA) precipitable products was determined by scintillation counting. Cell viability was determined by trypan blue dye exclusion. Toxicity to intact animals was determined by intraperitoneal injection (i.p.) of the SCRIPs into mice. […]

HIV = settings: literature; cited from earlier work

Substance	toxicity (cytotoxicity) in words (cells [1])	cytotoxicity (cells [2])	Inhibition of Reverse Transcriptase (HIV-RT activity), ID50 (HIV-1 [3]) [nM]	In Vivo Toxicity, LD50 (range) (CF1 mice) [mg/kg]	hepatic hyperplasia (CF1 mice; 0.1-100 mg per 100 gm body weight every three days)	Inhibition of p24 activity (expression), ID50 (HIV-1 [4]) [nM]	Inhibition of syncytium formation, ID50 (HIV-1 [5]) [nM]	Ribosome-inactivation, ID50 [6] [nM]	Cytotoxicity, ID50 (H9 cells) [nM]	anti-HIV activity (HIV)
SAP-6: a SCRIP isolated from Saponaria officinalis	relatively toxic	–	–	–	–	–	–	–	–	–
trichosanthin	toxic	toxic; also recorded: cytotoxic side effects	0.46	5 to 7	moderate hepatic hyperplasia	0.37	0.34	3.7	340	reduced viral antigen expression in, and were selectively toxic to, HIV-infected cells
